Measured values taken from paper PMC6409085, “Three odorant-binding proteins are involved in the behavioral response of Sogatella furcifera to rice plant volatiles” (PeerJ, 2019).
“And” between values parts separate entries of the source, which are not always exact repeats. Equal values may be shown once.

Key:
SfurOBP1 = SfurOBP1 (Sogatella furcifera, UniProt V5T8N5); assay: biochemical; type: binding; settings: for Fluorescence competitive binding assay, fluorescence intensity: OBP1, three replicate columns
Summary of the method: (§1)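 First, 2.0 µM protein in 50 mM Tris-HCl (pH 7.4) was titrated with 1-NPN to obtain K1-NPN. Then odorants (2–20 µM final) competed against 2.0 µM 1-NPN, with fluorescence (ex 337 nm) recorded after 2 min. Ki was computed from IC50 via Ki = IC50/(1 + [1-NPN]/K1-NPN).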

SfurOBP11 = SfurOBP11 (Sogatella furcifera, UniProt V5T6E3); assay: biochemical; type: binding
Summary of the method: as §1

SfurOBP2 = SfurOBP2 (Sogatella furcifera, UniProt V5T759); assay: biochemical; type: binding
Summary of the method: as §1

SfurOBP3 = SfurOBP3 (Sogatella furcifera, UniProt V5T818); assay: biochemical; type: binding; settings: for Fluorescence competitive binding assay, fluorescence intensity: OBP3, three replicate columns
Summary of the method: as §1

S. furcifera adults = assay: Y-tube olfactometer behavioral trials; type: in vivo, Sogatella furcifera; settings: odorant 50 µL/L vs hexane; adults
Summary of the method: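 Single S. furcifera adults (2 days post-emergence, starved 0.5 h) chose between odorant (100 µL of 50 µL/L on filter paper) and hexane control in a glass Y-tube, charcoal-filtered humidified air 300 mL/min per arm, 25 ± 1 °C, 50% RH. Choice scored if insect passed half an arm and stayed >1 min within 10 min; 45 insects per compound, chi-squared test.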

Chain of SfurOBP3 (V5T818 entry or part of it): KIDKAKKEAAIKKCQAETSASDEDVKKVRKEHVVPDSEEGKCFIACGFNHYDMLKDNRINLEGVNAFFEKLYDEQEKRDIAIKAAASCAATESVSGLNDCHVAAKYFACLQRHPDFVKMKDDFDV
Chain of SfurOBP11 (V5T6E3 entry or part of it): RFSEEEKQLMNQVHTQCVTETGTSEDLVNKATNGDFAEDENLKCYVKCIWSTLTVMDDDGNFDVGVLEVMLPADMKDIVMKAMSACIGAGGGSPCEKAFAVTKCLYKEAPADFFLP
Chain of SfurOBP2 (V5T759 entry or part of it): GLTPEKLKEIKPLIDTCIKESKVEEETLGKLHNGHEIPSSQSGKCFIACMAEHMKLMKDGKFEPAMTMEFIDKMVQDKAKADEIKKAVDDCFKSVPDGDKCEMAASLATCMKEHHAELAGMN
Chain of SfurOBP1 (V5T8N5 entry or part of it): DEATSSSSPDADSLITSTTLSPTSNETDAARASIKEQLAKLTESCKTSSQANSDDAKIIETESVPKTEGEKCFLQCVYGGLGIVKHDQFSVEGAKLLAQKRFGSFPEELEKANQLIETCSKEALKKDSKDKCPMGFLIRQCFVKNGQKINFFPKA

CCCCCCCCCCCCCC [n-tetradecane]
Fluorescence competitive binding assay, fluorescence intensity (SfurOBP1; ligand concentration 2 (μM)): 6022 and 9475 and 7407
Fluorescence competitive binding assay, fluorescence intensity (SfurOBP1; ligand concentration 4 (μM)): 7163 and 8831 and 6832
Fluorescence competitive binding assay, fluorescence intensity (SfurOBP1; ligand concentration 6 (μM)): 9235 and 7734 and 8738
Fluorescence competitive binding assay, fluorescence intensity (SfurOBP1; ligand concentration 8 (μM)): 7490 and 9773 and 9402
Fluorescence competitive binding assay, fluorescence intensity (SfurOBP1; ligand concentration 10 (μM)): 10034 and 9701 and 9801
Fluorescence competitive binding assay, fluorescence intensity (SfurOBP1; ligand concentration 12 (μM)): 16511 and 14895 and 12657
Fluorescence competitive binding assay, fluorescence intensity (SfurOBP1; ligand concentration 14 (μM)): 9553 and 12263 and 10210
Fluorescence competitive binding assay, fluorescence intensity (SfurOBP1; ligand concentration 16 (μM)): 10515 and 10611 and 10617
Fluorescence competitive binding assay, fluorescence intensity (SfurOBP1; ligand concentration 18 (μM)): 11876 and 13682 and 11119
Fluorescence competitive binding assay, fluorescence intensity (SfurOBP1; ligand concentration 20 (μM)): 17922 and 11049 and 10258
IC50 (SfurOBP1; SfurOBP1, protein and 1-NPN both 2.0 µM, competitor 2-20 µM, read-out: IC50): > 20 µM
IC50 (SfurOBP11; SfurOBP11, protein and 1-NPN both 2.0 µM, competitor 2-20 µM, read-out: IC50): > 20 µM
Fluorescence intensity, fluorescence competitive binding assay, OBP11 (SfurOBP11; ligand concentration 2, replicate 1): 29943
Fluorescence intensity, fluorescence competitive binding assay, OBP11 (SfurOBP11; ligand concentration 2, replicate 2): 27499
Fluorescence intensity, fluorescence competitive binding assay, OBP11 (SfurOBP11; ligand concentration 2, replicate 3): 28054
Fluorescence intensity, fluorescence competitive binding assay, OBP11 (SfurOBP11; ligand concentration 4, replicate 1): 30256
Fluorescence intensity, fluorescence competitive binding assay, OBP11 (SfurOBP11; ligand concentration 4, replicate 2): 30866
Fluorescence intensity, fluorescence competitive binding assay, OBP11 (SfurOBP11; ligand concentration 4, replicate 3): 29645
Fluorescence intensity, fluorescence competitive binding assay, OBP11 (SfurOBP11; ligand concentration 6, replicate 1): 26462
Fluorescence intensity, fluorescence competitive binding assay, OBP11 (SfurOBP11; ligand concentration 6, replicate 2): 29047
Fluorescence intensity, fluorescence competitive binding assay, OBP11 (SfurOBP11; ligand concentration 6, replicate 3): 31220
Fluorescence intensity, fluorescence competitive binding assay, OBP11 (SfurOBP11; ligand concentration 8, replicate 1): 26278
Fluorescence intensity, fluorescence competitive binding assay, OBP11 (SfurOBP11; ligand concentration 8, replicate 2): 28884
Fluorescence intensity, fluorescence competitive binding assay, OBP11 (SfurOBP11; ligand concentration 8, replicate 3): 31318
Fluorescence intensity, fluorescence competitive binding assay, OBP11 (SfurOBP11; ligand concentration 10, replicate 1): 27323
Fluorescence intensity, fluorescence competitive binding assay, OBP11 (SfurOBP11; ligand concentration 10, replicate 2): 28751
Fluorescence intensity, fluorescence competitive binding assay, OBP11 (SfurOBP11; ligand concentration 10, replicate 3): 30741
Fluorescence intensity, fluorescence competitive binding assay, OBP11 (SfurOBP11; ligand concentration 12, replicate 1): 30511
Fluorescence intensity, fluorescence competitive binding assay, OBP11 (SfurOBP11; ligand concentration 12, replicate 2): 30637
Fluorescence intensity, fluorescence competitive binding assay, OBP11 (SfurOBP11; ligand concentration 12, replicate 3): 30384
Fluorescence intensity, fluorescence competitive binding assay, OBP11 (SfurOBP11; ligand concentration 14, replicate 1): 29980
Fluorescence intensity, fluorescence competitive binding assay, OBP11 (SfurOBP11; ligand concentration 14, replicate 2): 30187
Fluorescence intensity, fluorescence competitive binding assay, OBP11 (SfurOBP11; ligand concentration 14, replicate 3): 31537
Fluorescence intensity, fluorescence competitive binding assay, OBP11 (SfurOBP11; ligand concentration 16, replicate 1): 25150
Fluorescence intensity, fluorescence competitive binding assay, OBP11 (SfurOBP11; ligand concentration 16, replicate 2): 28430
Fluorescence intensity, fluorescence competitive binding assay, OBP11 (SfurOBP11; ligand concentration 16, replicate 3): 29261
Fluorescence intensity, fluorescence competitive binding assay, OBP11 (SfurOBP11; ligand concentration 18, replicate 1): 33050
Fluorescence intensity, fluorescence competitive binding assay, OBP11 (SfurOBP11; ligand concentration 18, replicate 2): 34724
Fluorescence intensity, fluorescence competitive binding assay, OBP11 (SfurOBP11; ligand concentration 18, replicate 3): 33545
Fluorescence intensity, fluorescence competitive binding assay, OBP11 (SfurOBP11; ligand concentration 20, replicate 1): 33953
Fluorescence intensity, fluorescence competitive binding assay, OBP11 (SfurOBP11; ligand concentration 20, replicate 2): 35669
Fluorescence intensity, fluorescence competitive binding assay, OBP11 (SfurOBP11; ligand concentration 20, replicate 3): 33542
IC50 (SfurOBP2; SfurOBP2, protein and 1-NPN both 2.0 µM, competitor 2-20 µM, read-out: IC50): > 20 µM
Fluorescence competitive binding assay, OBP2 (raw fluorescence reading) (SfurOBP2; ligand concentration 2 (unit not given), replicate column 1 of 3): 17681
Fluorescence competitive binding assay, OBP2 (raw fluorescence reading) (SfurOBP2; ligand concentration 2 (unit not given), replicate column 2 of 3): 15844
Fluorescence competitive binding assay, OBP2 (raw fluorescence reading) (SfurOBP2; ligand concentration 2 (unit not given), replicate column 3 of 3): 16950
Fluorescence competitive binding assay, OBP2 (raw fluorescence reading) (SfurOBP2; ligand concentration 4 (unit not given), replicate column 1 of 3): 17519
Fluorescence competitive binding assay, OBP2 (raw fluorescence reading) (SfurOBP2; ligand concentration 4 (unit not given), replicate column 2 of 3): 20288
Fluorescence competitive binding assay, OBP2 (raw fluorescence reading) (SfurOBP2; ligand concentration 4 (unit not given), replicate column 3 of 3): 20488
Fluorescence competitive binding assay, OBP2 (raw fluorescence reading) (SfurOBP2; ligand concentration 6 (unit not given), replicate column 1 of 3): 19784
Fluorescence competitive binding assay, OBP2 (raw fluorescence reading) (SfurOBP2; ligand concentration 6 (unit not given), replicate column 2 of 3): 21064
Fluorescence competitive binding assay, OBP2 (raw fluorescence reading) (SfurOBP2; ligand concentration 6 (unit not given), replicate column 3 of 3): 19193
Fluorescence competitive binding assay, OBP2 (raw fluorescence reading) (SfurOBP2; ligand concentration 8 (unit not given), replicate column 1 of 3): 20311
Fluorescence competitive binding assay, OBP2 (raw fluorescence reading) (SfurOBP2; ligand concentration 8 (unit not given), replicate column 2 of 3): 19912
Fluorescence competitive binding assay, OBP2 (raw fluorescence reading) (SfurOBP2; ligand concentration 8 (unit not given), replicate column 3 of 3): 20694
Fluorescence competitive binding assay, OBP2 (raw fluorescence reading) (SfurOBP2; ligand concentration 10 (unit not given), replicate column 1 of 3): 21153
Fluorescence competitive binding assay, OBP2 (raw fluorescence reading) (SfurOBP2; ligand concentration 10 (unit not given), replicate column 2 of 3): 20155
Fluorescence competitive binding assay, OBP2 (raw fluorescence reading) (SfurOBP2; ligand concentration 10 (unit not given), replicate column 3 of 3): 21164
Fluorescence competitive binding assay, OBP2 (raw fluorescence reading) (SfurOBP2; ligand concentration 12 (unit not given), replicate column 1 of 3): 17882
Fluorescence competitive binding assay, OBP2 (raw fluorescence reading) (SfurOBP2; ligand concentration 12 (unit not given), replicate column 2 of 3): 20189
Fluorescence competitive binding assay, OBP2 (raw fluorescence reading) (SfurOBP2; ligand concentration 12 (unit not given), replicate column 3 of 3): 20719
Fluorescence competitive binding assay, OBP2 (raw fluorescence reading) (SfurOBP2; ligand concentration 14 (unit not given), replicate column 1 of 3): 19553
Fluorescence competitive binding assay, OBP2 (raw fluorescence reading) (SfurOBP2; ligand concentration 14 (unit not given), replicate column 2 of 3): 20680
Fluorescence competitive binding assay, OBP2 (raw fluorescence reading) (SfurOBP2; ligand concentration 14 (unit not given), replicate column 3 of 3): 20531
Fluorescence competitive binding assay, OBP2 (raw fluorescence reading) (SfurOBP2; ligand concentration 16 (unit not given), replicate column 1 of 3): 20438
Fluorescence competitive binding assay, OBP2 (raw fluorescence reading) (SfurOBP2; ligand concentration 16 (unit not given), replicate column 2 of 3): 19246
Fluorescence competitive binding assay, OBP2 (raw fluorescence reading) (SfurOBP2; ligand concentration 16 (unit not given), replicate column 3 of 3): 20069
Fluorescence competitive binding assay, OBP2 (raw fluorescence reading) (SfurOBP2; ligand concentration 18 (unit not given), replicate column 1 of 3): 24630
Fluorescence competitive binding assay, OBP2 (raw fluorescence reading) (SfurOBP2; ligand concentration 18 (unit not given), replicate column 2 of 3): 24806
Fluorescence competitive binding assay, OBP2 (raw fluorescence reading) (SfurOBP2; ligand concentration 18 (unit not given), replicate column 3 of 3): 23381
Fluorescence competitive binding assay, OBP2 (raw fluorescence reading) (SfurOBP2; ligand concentration 20 (unit not given), replicate column 1 of 3): 26164
Fluorescence competitive binding assay, OBP2 (raw fluorescence reading) (SfurOBP2; ligand concentration 20 (unit not given), replicate column 2 of 3): 20955
Fluorescence competitive binding assay, OBP2 (raw fluorescence reading) (SfurOBP2; ligand concentration 20 (unit not given), replicate column 3 of 3): 19728
Fluorescence competitive binding assay, fluorescence intensity (SfurOBP3; ligand concentration 2): 83183 and 87404 and 88774
Fluorescence competitive binding assay, fluorescence intensity (SfurOBP3; ligand concentration 4): 91510 and 89708 and 93194
Fluorescence competitive binding assay, fluorescence intensity (SfurOBP3; ligand concentration 6): 97532 and 94447 and 95269
Fluorescence competitive binding assay, fluorescence intensity (SfurOBP3; ligand concentration 8): 93074 and 89520 and 89172
Fluorescence competitive binding assay, fluorescence intensity (SfurOBP3; ligand concentration 10): 92952 and 88800 and 85833
Fluorescence competitive binding assay, fluorescence intensity (SfurOBP3; ligand concentration 12): 87947 and 90919 and 89332
Fluorescence competitive binding assay, fluorescence intensity (SfurOBP3; ligand concentration 14): 86216 and 85989 and 89098
Fluorescence competitive binding assay, fluorescence intensity (SfurOBP3; ligand concentration 16): 77694 and 82013 and 80619
Fluorescence competitive binding assay, fluorescence intensity (SfurOBP3; ligand concentration 18): 91776 and 100406 and 90755
Fluorescence competitive binding assay, fluorescence intensity (SfurOBP3; ligand concentration 20): 89755 and 85247 and 85349
IC50 (SfurOBP3; SfurOBP3, protein and 1-NPN both 2.0 µM, competitor 2-20 µM, read-out: IC50): > 20 µM
number of insects choosing hexane arm (S. furcifera adults): 13
number of insects choosing volatilies arm (S. furcifera adults): 14
number of insects failed (no choice) (S. furcifera adults): 13
